Measurements reported in patent US6548540B2, “Method of treating cancer using dithiocarbamate derivatives” (Charlotte-Mecklenburg Hospital Authority, priority 1998, dated 2003).

Legend:
Type in all cases: cell-based, human
M1619 melanoma cells = experiment: MTT proliferation assay, M1619 melanoma; conditions: CuSO4 supplementation of medium without disulfiram
Method: Human malignant cell lines were obtained from American Type Tissue Culture Collection (Rockville, Md.). Melanoma cells lines CRL 1585 and 1619 were cultured in RPMI 1640 (GIBCO-BRL, Life Technologies, Grand Island, N.Y.) with 10% FBS and passed with nonenzymatic Cell Dissociation Solution® (Sigma). The prostate adenocarcinoma cell line CRL 1435 (PC-3) was also cultured in RPMI 1640 with 10% FBS but passed with 0.05% trypsin and 0.53 mM EDTA. The squamous lung carcinoma NCI-H520 and the adenosquamous lung carcinoma NCI-H596 cell lines were grown in RPMI 1640 supplemented with 10% FBS, 10 mM HEPES and 1.0 mM sodium pyruvate and passed with trypsin/EDTA. The small cell lung carcinoma NCI-H82 was cultured as a suspension in RPMI 1640 with 10% FBS. All of the above were grown in a 37° C. humidified environment containing 5% CO2/air. The breast carcinoma cell line MDA-MB-453 was grown in a 37° C. humidified environment with free gas exchange with atmospheric air using Leibovitz's L-15 medium with 2 mM L-glutamine and 10% FBS and was passed with trypsin/EDTA.
The effect of disulfiram (0.15 to 5.0 μM), diethyldithiocarbamate (DDC, 1.0 μM) or PDTC (0.625 to 5.0 μM) on proliferation of malignant cell lines was studied in cultures stimulated with 10% FBS. Cell numbers were quantitated 24-72 hours later. In some experiments disulfiram or PDTC were added immediately after cells were plated. In other experiments, cells were plated and allowed to grow for 24-72 hours before fresh media with disulfiram or PDTC was added, and cell numbers were assayed 24-72 hours later.
Finally, a number of dithiocarbamate effects on cells have been attributed to increasing the intracellular levels of copper ions. To further probe the role of copper in mediating cytotoxicity from disulfiram, cells were cultured with or without addition of the impermeate Cu^2+ chelator bathocuprioinedisulfonic acid (BCPS, 100 μM) added to medium to sequester Cu^2+ in the extracellular compartment. Cells were also treated 12 hours with various concentration of disulfiram (0.625 to 5.0 μM) and intracellular copper levels were measured as outlined below.
Proliferation of cultured cells was quantitated using a previously reported calorimetric method based upon metabolic reduction of the soluble yellow tetrazolium dye 3-[4,5-dimethylthiazol]-2yl-2,5-diphenyl tetrazolium bromide (MTT) to its insoluble purple formazan by the action of mitochondrial succinyl dehydrogenase (See, e.g., S. J. Hirst, et al., “Quantifying proliferation of cultured human and rabbit airway smooth muscle in response to serum and platelet derived growth factor,” Am. J. Respir. Cell Mol. Biol. 7:574-581 (1992); R. Dashtaki, et al. R., supra; S. S. Brar, et al., “Requirement for reactive oxygen species in serum-induced and platelet-derived growth factor-induced growth of airway smooth muscle,” J. Biol. Chem. 274:20017-20026 (1999)). This assay empirically distinguishes between dead and living cells. For proliferation studies, cells were seeded into 24-well uncoated plastic plates (Costar) at 50,000 cells per well and cultured with respective media and mitogens.

cyclin A = experiment: Immunoblot for cyclin A in M1619 cells; conditions: CuSO4 1.6 μM alone; 24 hours
Method: Cells were lysed and proteins were isolated and quantitated by immunoassay as previously detailed using 2 μg/ml of primary rabbit polyclonal antibodies against human bcl-2, p53, p21^WAF1/CiP1, cyclin A and cyclin B1, and peroxidase-labeled donkey polyclonal anti-rabbit IgG. Cells were placed on ice, washed twice with cold DPBS, scraped into 0.5 ml boiling buffer (10% [vol/vol] glycerol and 2% [wt/vol] sodium dodecyl sulfate [SDS] in 83 mM Tris, pH 6.8) and sheared by four passages through a pipette. Aliquots were removed for protein determination, using the BCA protein assay (Pierce). After 10% β-mercaptoethanol and 0.05% bromophenol blue were added, lysates were boiled for 5 min and stored at -80° C. until immunoblotting was performed. Proteins in defrosted samples were separated by SDS-polyacrylamide gel electrophoresis on 12% polyacrylamide gels (15 μg protein/lane) and electrotransferred to 0.45 μm Hybond ECL nitrocellulose membranes (Amersham Life Sciences) using the wet transblot method in transfer buffer (0.025 M Tris, 0.192 M glycine, 2.6 mM SDS, and 20%[vol/vol] methanol; pH 8.8) at 100 volts for 1 hour. Blots were blocked overnight at 4° C. with blocking buffer (PBS with 0.1% Tween 20) containing 5% fat-free milk powder (Carnation, Glendale, Calif.). After rinsing 5 times for 5 minutes each in PBS containing 0.1% Tween 20, blots were incubated for 1 hour at room temperature with 2.0 μg/ml of primary antibody. After rinsing again as above, blots were incubated for 1 hr at room temperature with horseradish peroxidase (HRP)-conjugated secondary antibody diluted 1:5,000 in blocking buffer. Immunoblots were rinsed again as above and detected via an enhanced chemiluminescence method (ECL Western blotting detection system, Amersham Life Science, Buckinghamshire, England). Autoradiographic film (X-OMAT AR, Eastman Kodak, Rochester, N.Y.) was exposed to immunoblots for 10, 30, or 60 seconds to obtain satisfactory images. Since disulfiram and copper disrupt transcription factor DNA binding to CRE, their effect on expression of cyclin A was studied. […]

M1619 cells = experiment: Intracellular reactive oxygen species, dichlorofluorescin probe; conditions: CuSO4 0.2-1.6 μM
Method: Potential redox effects of disulfiram were studied in three sets of experiments. The importance of cellular glutathione (GSH) in mediating or modulating thiocarbamate toxicity was studied by measuring levels of intracellular GSH after treatment with disulfiram. […] Also, to assess whether a nonspecific antioxidant effect of disulfiram or PDTC might account for cellular growth inhibition, we studied the effect of the potent lipophilic antioxidant probucol (1.0 to 1,000 μM) on proliferation of malignant cell lines. […] A. Royall, et al., “Evaluation of 2′,7′-dichlorofluorescin and dihydrorhodamine 123 as fluorescent probes for intracellular H2O2 in cultured endothelial cells,” Archiv. Biochem. Biophys. 302:348-355 (1993)). […] Cells were plated in 24 well plastic plates at 50,000 cells per well and grown to confluence. Media was aspirated from wells and replaced with 100 μl medium containing 10 μM DCF-DA, and plates were incubated at 37° C. for 30 minutes. The DCF-DA containing media was aspirated, cells were washed twice with media alone and 100 μl fresh media was added to wells. […] The relative concentration of dichlorofluroescein was measured immediately by monitoring fluorescence at 37° C. using an excitation wavelength of 485 nm and emission wavelength of 535 nm.

Compound: O=S(=O)([O-])[O-].[Cu+2] [CuSO4, cupric sulfate]
- cell growth, copper alone (M1619 melanoma cells): do not by themselves affect cell growth
- cyclin A expression (cyclin A): little effect
- generation of reactive oxygen species (dichlorofluorescein fluorescence vs baseline) (M1619 cells): not increased
